Measured values as given in ChEMBL document CHEMBL1201862, “PubChem BioAssay data set” (2004).
The source made the active and inactive calls.

What was measured:
[1] = biological target: T1, Delta-type opioid receptor (Homo sapiens, UniProt P41143); experiment: HTS Image-Based Screen for Antagonists of the DOR Receptor. [Related pubchem assays (depositor defined):AID1777, AID1785, AID1786, AID2133]; format: functional
[2] = biological target: Mu-type opioid receptor (Homo sapiens, UniProt P35372); experiment: HTS Image-Based Screen for Agonists of the MOR Receptor. [Related pubchem assays (depositor defined):AID1777, AID1785, AID1786, AID2133]; format: functional;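 further: imaging of beta-arrestin GFP recruitment into spots after receptor activation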
Mu-type opioid receptor, sequence (P35372 whole entry): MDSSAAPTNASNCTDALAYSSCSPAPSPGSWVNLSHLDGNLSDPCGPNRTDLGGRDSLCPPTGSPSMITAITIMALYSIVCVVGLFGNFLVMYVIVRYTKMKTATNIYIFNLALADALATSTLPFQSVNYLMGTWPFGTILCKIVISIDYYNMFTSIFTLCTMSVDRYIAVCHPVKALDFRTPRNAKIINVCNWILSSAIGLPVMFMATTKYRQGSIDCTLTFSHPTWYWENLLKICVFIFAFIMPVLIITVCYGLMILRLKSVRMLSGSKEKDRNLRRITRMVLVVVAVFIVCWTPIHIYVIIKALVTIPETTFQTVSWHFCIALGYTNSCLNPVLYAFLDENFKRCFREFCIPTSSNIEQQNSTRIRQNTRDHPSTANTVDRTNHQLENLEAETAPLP

[3] = biological target: Neuropeptide Y receptor type 2 (Homo sapiens, UniProt P49146); experiment: NPY-Y2 antagonist potency, selectivity check, dose response, counter-screen for NPY-Y1 antagonist project, cell-based (AID 1278); format: functional
[4] = biological target: T1, Delta-type opioid receptor; experiment: HTS Image-Based Screen for Agonists of the DOR Receptor. [Related pubchem assays (depositor defined):AID1777, AID1786, AID2133]; format: functional
[5] = biological target: Neuropeptide Y receptor type 1 (Homo sapiens, UniProt P25929); experiment: NPY-Y1 receptor antagonist potency, dose response, cell-based (AID 1277); format: functional
Neuropeptide Y receptor type 1, sequence (P25929 whole entry): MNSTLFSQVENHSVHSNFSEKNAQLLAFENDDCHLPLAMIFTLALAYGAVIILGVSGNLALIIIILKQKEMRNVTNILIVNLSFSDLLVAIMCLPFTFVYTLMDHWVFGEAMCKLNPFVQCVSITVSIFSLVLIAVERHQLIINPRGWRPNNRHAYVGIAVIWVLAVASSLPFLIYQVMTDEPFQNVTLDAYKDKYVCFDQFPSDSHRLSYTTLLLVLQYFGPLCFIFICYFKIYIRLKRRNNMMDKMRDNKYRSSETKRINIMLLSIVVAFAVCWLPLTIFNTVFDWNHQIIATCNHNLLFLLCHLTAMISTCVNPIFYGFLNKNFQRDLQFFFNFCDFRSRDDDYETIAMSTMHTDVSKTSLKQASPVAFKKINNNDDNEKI

[6] = biological target: T2, Kappa-type opioid receptor (Homo sapiens, UniProt P41145); format: functional
T2 sequence (P41145 whole entry): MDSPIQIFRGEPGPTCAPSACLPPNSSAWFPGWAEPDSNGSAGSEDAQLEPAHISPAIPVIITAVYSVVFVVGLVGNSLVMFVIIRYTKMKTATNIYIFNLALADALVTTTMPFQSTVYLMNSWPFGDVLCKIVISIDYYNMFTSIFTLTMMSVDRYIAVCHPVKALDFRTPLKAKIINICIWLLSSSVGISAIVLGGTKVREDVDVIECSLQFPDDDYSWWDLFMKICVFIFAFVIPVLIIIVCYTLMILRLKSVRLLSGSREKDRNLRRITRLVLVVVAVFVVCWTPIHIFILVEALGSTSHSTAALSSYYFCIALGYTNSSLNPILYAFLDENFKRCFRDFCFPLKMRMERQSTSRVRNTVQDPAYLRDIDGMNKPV

[7] = biological target: T2, Kappa-type opioid receptor; format: functional; remark: listed apart in the source
[8] = biological target: T3, Leucine aminopeptidase (Plasmodium falciparum 3D7, UniProt Q8IL11); experiment: P. falciparum M17LAP inhibitors, primary screen, biochemical, fluorogenic H-Leu-NHMec substrate, 1536-well (AID 1619); format: functional
T3 sequence (Q8IL11 whole entry): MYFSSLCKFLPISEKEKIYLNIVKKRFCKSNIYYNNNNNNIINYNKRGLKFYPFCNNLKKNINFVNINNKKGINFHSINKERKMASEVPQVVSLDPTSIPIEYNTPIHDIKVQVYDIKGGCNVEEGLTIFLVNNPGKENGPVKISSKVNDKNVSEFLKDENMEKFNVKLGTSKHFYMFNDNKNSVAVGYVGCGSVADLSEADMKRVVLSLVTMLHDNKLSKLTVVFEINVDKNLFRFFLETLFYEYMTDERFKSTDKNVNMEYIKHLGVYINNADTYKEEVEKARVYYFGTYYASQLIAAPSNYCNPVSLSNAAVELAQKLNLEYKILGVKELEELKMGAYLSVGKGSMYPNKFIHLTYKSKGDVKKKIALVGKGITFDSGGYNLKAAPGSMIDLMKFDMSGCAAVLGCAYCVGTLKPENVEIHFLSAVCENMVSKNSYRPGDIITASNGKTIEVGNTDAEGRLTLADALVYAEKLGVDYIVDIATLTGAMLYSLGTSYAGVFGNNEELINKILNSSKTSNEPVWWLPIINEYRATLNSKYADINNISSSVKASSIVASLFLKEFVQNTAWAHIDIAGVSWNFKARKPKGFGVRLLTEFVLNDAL

[9] = Counterscreen for IDE inhibitors: Luminescence-based cell-based high throughput dose response assay to identify compounds that are cytotoxic to HEK cells. [Related pubchem assays: 434962 (Primary screen (IDE inhibitors in singlicate)), 449730 (Counterscreen (Cytotoxicity in triplicate)), 435028 (Confirmation (IDE inhibitors in triplicate)) …; format: functional; conditions: HEK293
[10] = biological target: Insulin-degrading enzyme (Homo sapiens, UniProt P14735); experiment: Dose Response: Fluorescence polarization-based cell-based high throughput dose response assay for inhibitors of insulin-degrading enzyme (IDE). [Related pubchem assays: 434962 (Primary screen (IDE inhibitors in singlicate)), 449730 (Counterscreen (Cytotoxicity in triplicate)), 435028 (Confirmation (IDE inhibitors in triplicate)), 434984 (Summary …; format: functional
Insulin-degrading enzyme, sequence (P14735 whole entry): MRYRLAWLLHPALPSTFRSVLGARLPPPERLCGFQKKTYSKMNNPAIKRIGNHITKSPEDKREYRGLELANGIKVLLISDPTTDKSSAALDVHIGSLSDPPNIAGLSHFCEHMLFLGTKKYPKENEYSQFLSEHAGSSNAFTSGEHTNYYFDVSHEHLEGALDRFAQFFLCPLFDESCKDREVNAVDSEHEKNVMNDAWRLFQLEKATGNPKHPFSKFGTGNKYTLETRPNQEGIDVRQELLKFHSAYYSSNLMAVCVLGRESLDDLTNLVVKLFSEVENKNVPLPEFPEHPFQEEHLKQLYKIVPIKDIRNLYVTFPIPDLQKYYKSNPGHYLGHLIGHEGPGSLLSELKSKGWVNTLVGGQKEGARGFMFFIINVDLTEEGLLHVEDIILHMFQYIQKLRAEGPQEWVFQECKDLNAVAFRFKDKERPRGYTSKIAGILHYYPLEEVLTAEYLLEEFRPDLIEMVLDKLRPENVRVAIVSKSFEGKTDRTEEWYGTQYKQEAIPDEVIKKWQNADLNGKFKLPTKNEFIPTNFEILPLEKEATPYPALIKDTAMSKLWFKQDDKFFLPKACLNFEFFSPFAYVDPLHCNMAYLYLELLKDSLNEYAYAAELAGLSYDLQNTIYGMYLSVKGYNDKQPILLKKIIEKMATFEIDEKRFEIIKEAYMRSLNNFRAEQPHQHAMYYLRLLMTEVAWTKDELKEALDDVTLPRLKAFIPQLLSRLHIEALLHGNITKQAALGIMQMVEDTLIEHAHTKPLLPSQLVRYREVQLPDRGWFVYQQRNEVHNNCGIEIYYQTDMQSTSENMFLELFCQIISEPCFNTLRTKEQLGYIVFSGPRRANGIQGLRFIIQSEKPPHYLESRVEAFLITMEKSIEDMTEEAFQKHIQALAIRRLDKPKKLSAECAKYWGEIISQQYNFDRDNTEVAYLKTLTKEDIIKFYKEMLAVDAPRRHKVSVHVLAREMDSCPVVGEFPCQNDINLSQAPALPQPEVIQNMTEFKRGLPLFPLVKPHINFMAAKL

[11] = biological target: Aspartyl aminopeptidase (Plasmodium falciparum 3D7, UniProt Q8I2J3)
[12] = biological target: Procathepsin L (Homo sapiens, UniProt P07711)
Procathepsin L, sequence (P07711 whole entry): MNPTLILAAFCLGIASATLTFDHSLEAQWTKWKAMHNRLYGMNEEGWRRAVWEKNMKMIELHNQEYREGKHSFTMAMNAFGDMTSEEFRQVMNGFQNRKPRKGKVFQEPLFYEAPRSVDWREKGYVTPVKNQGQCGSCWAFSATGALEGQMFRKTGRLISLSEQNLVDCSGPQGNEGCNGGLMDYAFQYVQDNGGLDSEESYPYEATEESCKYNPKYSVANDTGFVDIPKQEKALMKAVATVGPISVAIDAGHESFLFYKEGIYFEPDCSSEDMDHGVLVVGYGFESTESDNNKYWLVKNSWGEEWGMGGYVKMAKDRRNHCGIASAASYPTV

[13] = biological target: Large T antigen (Simian virus 40, UniProt P03070); format: functional, Betapolyomavirus macacae;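 further: Confirmatory-stage PubChem screen for compounds that inhibit SV40 T antigen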
Large T antigen, sequence (P03070 whole entry): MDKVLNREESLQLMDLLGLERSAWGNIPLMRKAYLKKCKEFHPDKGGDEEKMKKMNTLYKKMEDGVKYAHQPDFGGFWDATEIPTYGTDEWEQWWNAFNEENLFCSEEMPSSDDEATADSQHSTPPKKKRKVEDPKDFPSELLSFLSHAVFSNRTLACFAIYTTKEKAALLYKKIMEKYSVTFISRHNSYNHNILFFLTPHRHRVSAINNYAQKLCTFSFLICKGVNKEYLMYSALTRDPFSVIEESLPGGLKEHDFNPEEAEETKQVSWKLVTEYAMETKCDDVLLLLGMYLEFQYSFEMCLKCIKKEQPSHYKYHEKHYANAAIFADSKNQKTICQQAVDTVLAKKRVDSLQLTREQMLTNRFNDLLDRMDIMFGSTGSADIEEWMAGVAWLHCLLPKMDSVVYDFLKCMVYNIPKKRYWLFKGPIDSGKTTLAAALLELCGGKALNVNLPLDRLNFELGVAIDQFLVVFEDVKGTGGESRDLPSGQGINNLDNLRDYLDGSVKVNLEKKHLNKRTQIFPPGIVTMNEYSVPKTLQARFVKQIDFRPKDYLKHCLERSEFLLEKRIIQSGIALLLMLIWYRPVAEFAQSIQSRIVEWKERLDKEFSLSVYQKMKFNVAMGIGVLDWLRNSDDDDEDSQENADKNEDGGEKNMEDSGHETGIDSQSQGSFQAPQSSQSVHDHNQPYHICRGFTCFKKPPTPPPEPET

[14] = NIH-3T3 fibroblast cytotoxicity, dose response, cytotoxicity control, cell-based, fluorescence, Alamar Blue, secondary assay (AID 2327); format: functional;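 further: NIH-3T3 mouse fibroblasts cultured with fluconazole at 8 µg/mL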
[15] = cells; format: functional, cell-based
[16] = C. albicans growth with fluconazole, confirmation, fluorescence, retest (AID 2467); format: functional, cell-based
[17] = biological target: T4, Mannose-6-phosphate isomerase (Homo sapiens, UniProt P34949); experiment: inhibitors of human PMI, primary screen, biochemical, fluorescence intensity, coupled assay (AID 1209)
T4 sequence (P34949 whole entry): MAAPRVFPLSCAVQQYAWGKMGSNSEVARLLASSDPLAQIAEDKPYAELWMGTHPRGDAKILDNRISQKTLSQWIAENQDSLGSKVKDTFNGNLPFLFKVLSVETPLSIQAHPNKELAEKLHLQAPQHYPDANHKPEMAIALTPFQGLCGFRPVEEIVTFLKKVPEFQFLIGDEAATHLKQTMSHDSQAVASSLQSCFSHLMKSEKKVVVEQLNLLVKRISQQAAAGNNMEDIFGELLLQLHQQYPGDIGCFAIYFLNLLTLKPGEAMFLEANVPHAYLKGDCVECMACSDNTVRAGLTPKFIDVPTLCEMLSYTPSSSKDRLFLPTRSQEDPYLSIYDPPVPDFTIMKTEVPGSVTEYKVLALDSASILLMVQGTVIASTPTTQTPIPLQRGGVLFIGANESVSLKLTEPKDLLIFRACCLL

[18] = cells; format: functional, cell-based; remark: listed apart in the source
[19] = biological target: T5, Serine/threonine-protein phosphatase (Candida dubliniensis (strain CD36 / CBS 7987 / NCPF 3949 / NRRLY-17841) (Yeast), UniProt B9W6M3); experiment: calcineurin pathway inhibitors in yeast reporter, dose response, S. cerevisiae, CDRE-lacZ, luminescence, secondary (AID 2388); format: functional, cell-based;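 further: yeast reporter cells carrying a calcineurin-responsive lacZ construct stimulated with calcium chloride; luminescent beta-galactosidase reporter signal in whole cells rather than isolated phosphatase activity; potency for inhibition where a drop in reporter signal means calcineurin blockade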
T5 sequence (B9W6M3 whole entry): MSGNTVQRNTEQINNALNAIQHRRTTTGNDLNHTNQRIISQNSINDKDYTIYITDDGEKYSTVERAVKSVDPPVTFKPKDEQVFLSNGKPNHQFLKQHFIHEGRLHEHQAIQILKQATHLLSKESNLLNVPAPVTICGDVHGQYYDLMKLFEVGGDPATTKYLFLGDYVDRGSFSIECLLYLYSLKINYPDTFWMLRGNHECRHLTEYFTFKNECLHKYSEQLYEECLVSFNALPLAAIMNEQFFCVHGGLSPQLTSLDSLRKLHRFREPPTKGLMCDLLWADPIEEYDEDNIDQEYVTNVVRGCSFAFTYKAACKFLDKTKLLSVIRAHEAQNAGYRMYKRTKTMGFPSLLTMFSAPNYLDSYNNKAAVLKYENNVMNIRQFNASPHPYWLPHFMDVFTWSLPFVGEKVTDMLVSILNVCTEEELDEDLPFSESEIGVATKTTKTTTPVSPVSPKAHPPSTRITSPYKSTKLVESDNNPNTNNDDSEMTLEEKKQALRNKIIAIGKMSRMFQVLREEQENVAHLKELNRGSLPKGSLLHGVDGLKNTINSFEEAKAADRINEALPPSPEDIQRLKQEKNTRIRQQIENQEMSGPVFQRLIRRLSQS

[20] = enhancers of respiration in Yfh1-depleted yeast, dose response, Friedreich's ataxia, plus single-dose screen (AID 1465); format: functional;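 further: yeast depleted of Yfh1p frataxin homolog grown on glycerol needing respiration; WST-1 tetrazolium dye reduction as measure of cellular dehydrogenase metabolic activity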
[21] = biological target: Induced myeloid leukemia cell differentiation protein Mcl-1 (Homo sapiens, UniProt Q07820); format: functional
Induced myeloid leukemia cell differentiation protein Mcl-1, sequence (Q07820 whole entry): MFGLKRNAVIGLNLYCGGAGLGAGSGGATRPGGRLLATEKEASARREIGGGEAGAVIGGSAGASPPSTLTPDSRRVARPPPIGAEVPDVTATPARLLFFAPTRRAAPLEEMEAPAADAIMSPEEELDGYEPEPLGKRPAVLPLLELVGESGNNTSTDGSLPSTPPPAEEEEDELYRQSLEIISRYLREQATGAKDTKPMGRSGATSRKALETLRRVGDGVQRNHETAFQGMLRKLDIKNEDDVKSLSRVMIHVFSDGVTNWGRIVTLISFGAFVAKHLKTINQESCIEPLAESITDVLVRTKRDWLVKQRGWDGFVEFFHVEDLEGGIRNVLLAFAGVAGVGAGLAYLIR

[22] = biological target: T4, Mannose-6-phosphate isomerase; experiment: human PMI inhibitors, high substrate, primary screen, biochemical, fluorescence intensity, high mannose 6-phosphate (AID 1220)
[23] = biological target: T6, Coagulation factor XII (Homo sapiens, UniProt P00748); format: functional;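 further: activated factor XIIa alpha cleaving a fluorogenic AMC peptide substrate; inhibitor potency from loss of enzyme activity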
T6 sequence (P00748 whole entry): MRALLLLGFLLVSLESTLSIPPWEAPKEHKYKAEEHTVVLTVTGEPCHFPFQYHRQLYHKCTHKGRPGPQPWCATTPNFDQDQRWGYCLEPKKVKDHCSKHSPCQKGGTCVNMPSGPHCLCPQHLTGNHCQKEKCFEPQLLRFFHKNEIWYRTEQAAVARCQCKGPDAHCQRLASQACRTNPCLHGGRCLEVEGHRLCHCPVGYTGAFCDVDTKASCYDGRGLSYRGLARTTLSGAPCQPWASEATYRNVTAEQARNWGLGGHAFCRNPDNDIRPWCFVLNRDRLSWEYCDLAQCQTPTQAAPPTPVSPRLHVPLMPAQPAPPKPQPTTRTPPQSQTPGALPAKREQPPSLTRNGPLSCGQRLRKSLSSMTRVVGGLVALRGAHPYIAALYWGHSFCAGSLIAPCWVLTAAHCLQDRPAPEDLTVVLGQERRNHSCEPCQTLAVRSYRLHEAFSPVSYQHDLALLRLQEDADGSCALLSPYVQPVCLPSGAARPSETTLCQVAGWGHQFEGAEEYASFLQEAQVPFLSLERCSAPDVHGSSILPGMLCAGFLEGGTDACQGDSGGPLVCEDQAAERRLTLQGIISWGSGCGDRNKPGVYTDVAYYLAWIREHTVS

[24] = biological target: ATP-dependent molecular chaperone HSP82 (Candida albicans (strain WO-1) (Yeast), UniProt C4YTQ8); experiment: loss of DOC-induced GRE-beta-galactosidase reporter signal, dose response, Hsp90 inhibitor project, S. cerevisiae, luminescence (AID 2400); format: functional, cell-based;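 further: beta-galactosidase luminescence from glucocorticoid response element reporter as proxy for Hsp90 function; inhibitor potency where signal loss means Hsp90 inhibition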
ATP-dependent molecular chaperone HSP82, sequence (C4YTQ8 whole entry): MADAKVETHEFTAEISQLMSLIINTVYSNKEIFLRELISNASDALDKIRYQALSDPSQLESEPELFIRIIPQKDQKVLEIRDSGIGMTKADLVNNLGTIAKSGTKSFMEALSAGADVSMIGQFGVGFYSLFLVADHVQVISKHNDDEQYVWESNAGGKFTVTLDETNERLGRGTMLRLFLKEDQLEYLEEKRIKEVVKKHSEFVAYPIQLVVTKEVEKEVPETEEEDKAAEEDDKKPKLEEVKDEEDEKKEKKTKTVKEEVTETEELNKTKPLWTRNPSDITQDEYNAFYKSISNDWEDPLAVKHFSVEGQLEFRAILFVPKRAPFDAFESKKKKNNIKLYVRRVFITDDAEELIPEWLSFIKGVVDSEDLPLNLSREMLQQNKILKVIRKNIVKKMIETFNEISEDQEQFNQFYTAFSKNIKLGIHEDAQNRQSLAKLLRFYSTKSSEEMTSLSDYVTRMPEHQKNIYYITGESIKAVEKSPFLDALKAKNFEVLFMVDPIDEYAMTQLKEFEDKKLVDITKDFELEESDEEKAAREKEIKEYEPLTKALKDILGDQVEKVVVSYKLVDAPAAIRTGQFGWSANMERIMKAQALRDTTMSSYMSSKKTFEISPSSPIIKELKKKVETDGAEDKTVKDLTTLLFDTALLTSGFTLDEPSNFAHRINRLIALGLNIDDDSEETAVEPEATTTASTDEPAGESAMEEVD

[25] = tested on: Vero; experiment: cytotoxicity of synthesized analogs in Vero cells, SAR follow-up, cytotoxicity control for West Nile virus antiviral project, cell-based, set II (AID 2402); format: functional; conditions: Chlorocebus sabaeus
[26] = A Cell Based Assay for the Identification of Probe candidate Compounds with Anti- Venezuelan Equine Encephalitis virus. [Related pubchem assays: 2409, 2419, 1621, 2238, 2405, 2024, 2065, 2402, 2414, 1635, 1650, 2244 ]; format: functional

T1 sequence (P41143 whole entry): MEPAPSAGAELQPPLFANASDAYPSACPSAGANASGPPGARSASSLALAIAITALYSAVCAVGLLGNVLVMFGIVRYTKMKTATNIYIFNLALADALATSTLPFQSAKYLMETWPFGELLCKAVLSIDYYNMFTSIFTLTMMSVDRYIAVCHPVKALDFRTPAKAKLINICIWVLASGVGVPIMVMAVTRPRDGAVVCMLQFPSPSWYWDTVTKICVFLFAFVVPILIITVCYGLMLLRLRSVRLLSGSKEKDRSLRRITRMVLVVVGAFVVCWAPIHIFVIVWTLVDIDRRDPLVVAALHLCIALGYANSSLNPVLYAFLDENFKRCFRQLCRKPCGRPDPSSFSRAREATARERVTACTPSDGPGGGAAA

O=C(c1cnccn1)N(Cc1ccco1)C1(C(=O)NC2CCCCC2)CCCCC1
IC50 [1]: > 32 µM (inactive)
EC50 [2]: > 32 µM (inactive)
IC50 [3]: > 35 µM (not active)
EC50 [4]: > 32 µM (inactive)
IC50 [5]: > 35 µM (not active)
EC50 [6]: 1.32 µM
EC50 [7]: 2.39 µM

O=C(O)CC12CC3CC(C1)CC(n1ncc(NCc4ccc(F)cc4Cl)c(Cl)c1=O)(C3)C2
IC50 [8]: 32.1 µM (active)
IC50 [9]: > 55.7 µM (not active)
IC50 [10]: 18.1 µM (not active)

N/C(=N\N=C\c1ccc(O)cc1O)N[N+](=O)[O-]
IC50 [11]: 4.61 µM (active)
IC50 [12]: > 59.6 µM (not active)
IC50 [13]: 8.78 µM (active)

O=C(N/N=C/c1ccc(O)c(O)c1O)/C(=C/c1ccc([N+](=O)[O-])cc1)NC(=O)c1ccccc1
EC50 [14]: > 160 µM (inactive)
EC50 [15]: > 350 µM (not active)
EC50 [16]: 0.587 µM (active)
IC50 [17]: > 50 µM (not active)
EC50 [18]: > 350 µM (not active)
EC50 [19]: > 180 µM (inactive)
EC50 [20]: > 100 µM (active)
IC50 [21]: 19.3 µM (active)
IC50 [22]: > 50 µM (not active)
IC50 [23]: > 50 µM (inactive)
EC50 [24]: > 160 µM (inactive)

COc1ccc(Cn2nc(C)cc2OC(=O)c2ccccc2)cc1
CC50 [25]: > 200 µM (active)
IC50 [26]: > 133 µM (active)
